Species on record: Rattus norvegicus
Test: Open TG-GATES - Regimen: Single
Format: toxicity, organism-based, Sprague-Dawley
Parameters: regimen Single, gender Male, age 6 weeks
Details: in vivo, po, 150 mg/kg, route gavage, dose level High; for ALT / AST / BUN / CRE / Ca / Cl / DBIL / GLC / IP / K / LDH / Na / PL / RALB / TBIL / TC / TP / gamma-GTP / ALP: tissue Plasma; for APTT / Bas / Eos / Fbg / Hb / Ht / Lym / MCH / MCHC / MCV / Mono / Neu / PT / Plat / RBC / Ret / WBC: tissue Blood; for KIDNEY_L / KIDNEY_R / KIDNEY_TOTAL: tissue Kidney; for LIVER: tissue Liver

## O=P1(N(CCCl)CCCl)NCCCO1 (stereo unspecified) [CYCLOPHOSPHAMIDE ANHYDROUS]
3 h
  ALT: 33.2 IU/L
  AST: 72 IU/L
  BUN: 11.2 mg/dL
  CRE: 0.2 mg/dL
  Ca: 10.9 mg/dL
  Cl: 105.2 meq/L
  DBIL: 0.018 mg/dL
  GLC: 176 mg/dL
  IP: 8.6 mg/dL
  K: 4.1 meq/L
  LDH: 75.6 IU/L
  Na: 140 meq/L
  PL: 136.8 mg/dL
  RALB: 2.5 g/dL
  TBIL: 0.064 mg/dL
  TC: 71 mg/dL
  TP: 5.3 g/dL
  gamma-GTP: 1 IU/L
6 h
  TERMINAL_BW: 185.5 g
  APTT: 17.1 s
  Bas: 0%
  Eos: 1%
  Fbg: 284.8 mg/dL
  Hb: 13.2 g/dL
  Ht: 39.4%
  Lym: 71.4%
  MCH: 20.6 pg
  MCHC: 33.6%
  MCV: 61.3 fL
  Mono: 2.4%
  Neu: 25%
  PT: 14.2 s
  Plat: 119.4 x10_4/uL
  RBC: 643 x10_4/ul
  Ret: 9%
  WBC: 86.7 x10_2/uL
  KIDNEY_L: 0.8 g
  KIDNEY_R: 0.8 g
  KIDNEY_TOTAL: 1.7 g
  LIVER: 6.9 g
  ALP: 1365.8 IU/L
  ALT: 34.8 IU/L
  AST: 76.8 IU/L
  BUN: 12 mg/dL
  CRE: 0.2 mg/dL
  Ca: 10.8 mg/dL
  Cl: 107 meq/L
  DBIL: 0.012 mg/dL
  GLC: 184.4 mg/dL
  IP: 10.2 mg/dL
  K: 4.5 meq/L
  LDH: 64.8 IU/L
  Na: 143.2 meq/L
  PL: 138.8 mg/dL
  RALB: 2.5 g/dL
  TBIL: 0.062 mg/dL
  TC: 77.4 mg/dL
  TP: 5.5 g/dL
  gamma-GTP: 1.2 IU/L
9 h
  TERMINAL_BW: 190.2 g
  APTT: 16.2 s
  Bas: 0%
  Eos: 0.8%
  Fbg: 293.4 mg/dL
  Hb: 13.1 g/dL
  Ht: 39.2%
  Lym: 79.4%
  MCH: 20.5 pg
  MCHC: 33.5%
  MCV: 61.1 fL
  Mono: 1.8%
  Neu: 17.8%
  PT: 14 s
  Plat: 117.6 x10_4/uL
  RBC: 642.6 x10_4/ul
  Ret: 8.1%
  WBC: 50.7 x10_2/uL
  KIDNEY_L: 0.8 g
  KIDNEY_R: 0.8 g
  KIDNEY_TOTAL: 1.7 g
  LIVER: 7.2 g
  ALP: 1219.4 IU/L
  ALT: 26.2 IU/L
  AST: 67.6 IU/L
  BUN: 13 mg/dL
  CRE: 0.2 mg/dL
  Ca: 10.7 mg/dL
  Cl: 106.6 meq/L
  DBIL: 0.014 mg/dL
  GLC: 185.2 mg/dL
  IP: 10.5 mg/dL
  K: 4.2 meq/L
  LDH: 57.8 IU/L
  Na: 142.6 meq/L
  PL: 136.6 mg/dL
  RALB: 2.6 g/dL
  TBIL: 0.066 mg/dL
  TC: 78.2 mg/dL
  TP: 5.4 g/dL
  gamma-GTP: 1.4 IU/L
24 h
  TERMINAL_BW: 187.2 g
  APTT: 16.8 s
  Bas: 0.2%
  Eos: 1.4%
  Fbg: 285.2 mg/dL
  Hb: 13.3 g/dL
  Ht: 39%
  Lym: 63.8%
  MCH: 21 pg
  MCHC: 34.1%
  MCV: 61.6 fL
  Mono: 2.8%
  Neu: 31.8%
  PT: 14.3 s
  Plat: 100.5 x10_4/uL
  RBC: 634 x10_4/ul
  Ret: 5%
  WBC: 18 x10_2/uL
  KIDNEY_L: 0.9 g
  KIDNEY_R: 0.9 g
  KIDNEY_TOTAL: 1.8 g
  LIVER: 7.4 g
  ALP: 1374 IU/L
  ALT: 27.8 IU/L
  AST: 67.8 IU/L
  BUN: 17 mg/dL
  CRE: 0.2 mg/dL
  Ca: 10.5 mg/dL
  Cl: 107 meq/L
  DBIL: 0.02 mg/dL
  GLC: 178.8 mg/dL
  IP: 9 mg/dL
  K: 4.6 meq/L
  LDH: 55.2 IU/L
  Na: 142 meq/L
  PL: 138.2 mg/dL
  RALB: 2.5 g/dL
  TBIL: 0.068 mg/dL
  TC: 86.2 mg/dL
  TP: 5.3 g/dL
  gamma-GTP: 1 IU/L

— ChEMBL document CHEMBL3885861, “Open TG-GATES”
